Data on 6 molecules can be found in ChEMBL document CHEMBL4400520, “Benzofuran-isatin-imine hybrids tethered via different length alkyl linkers: Design, synthesis and in vitro evaluation of anti-tubercular and anti-bacterial activities as well as cytotoxicity” (Eur J Med Chem, 2019).

In data set [1] the test system is Mycobacterium tuberculosis. Put plainly: Antitubercular activity against Mycobacterium tuberculosis H37Rv. The format is functional.
Data set [2] in a line: Cytotoxicity against African green monkey Vero cells assessed as reduction in cell viability after 72 hrs by MTT assay. It is filed as cell-based. Conditions: chlorocebus sabaeus, Vero cells. A general note: Tetrazolium dyes change colour on reduction, which living cells bring about.
Data set [3] is described as follows: Selectivity index, ratio of CC50 for African green monkey Vero cells to MIC for Mycobacterium tuberculosis H37Rv. The format is toxicity. Conditions: read-out: Selectivity Index.
Data set [4] concerns Staphylococcus epidermidis. Put plainly: Antibacterial activity against methicillin-sensitive Staphylococcus epidermidis. It is filed as functional.
Data set [5] deals with Staphylococcus epidermidis. Put plainly: Antibacterial activity against methicillin-resistant Staphylococcus epidermidis. It is filed as functional.
For data set [6], the system named is Staphylococcus aureus. Put plainly: Antibacterial activity against methicillin-sensitive Staphylococcus aureus. It is filed as functional.
Data set [7] concerns Staphylococcus aureus. Description: Antibacterial activity against methicillin-resistant Staphylococcus aureus. It is filed as functional.
A further data set relates to Enterococcus faecalis. Put plainly: Antibacterial activity against Enterococcus faecalis. It is filed as functional.
The test system of the next data set is Enterococcus faecium. Put plainly: Antibacterial activity against Enterococcus faecium. It is filed as functional.
The test system of the next data set is Escherichia coli. Description: Antibacterial activity against Escherichia coli. It is filed as functional.
In a further data set the test system is Klebsiella pneumoniae. Description: Antibacterial activity against Klebsiella pneumoniae. It is filed as functional.
The subject of a further data set is Pseudomonas aeruginosa. Description: Antibacterial activity against Pseudomonas aeruginosa ATCC 27853. It is filed as functional.
In data set [8] the test system is Acinetobacter calcoaceticus. Put plainly: Antibacterial activity against Acinetobacter calcoaceticus. The format is functional.
In a further data set the test system is Enterobacter cloacae. Description: Antibacterial activity against Enterobacter cloacae. The format is functional.
A further data set relates to Klebsiella aerogenes. Description: Antibacterial activity against Enterobacter aerogenes. The format is functional.
In a further data set the test system is Proteus mirabilis. Description: Antibacterial activity against Proteus mirabilis. It is filed as functional.
The next data set has as its system Citrobacter freundii. Description: Antibacterial activity against Citrobacter freundii. It is filed as functional.

Values after ≈ are worked out from the molar mass of the structure shown.

On to `CCO/N=C1\C(=O)N(CCCOc2ccc3oc(-c4ccc(OC)cc4)c(C(=O)OCC)c3c2)c2ccc(OC)cc21`, for which the MIC – broadly, the least concentration at which growth counts as inhibited – in data set [1] is below 0.016 mg/L. For the same molecule, the CC50 (in general, the concentration that lowers cell viability or growth by half) at 72 h in data set [2] amounted to 32 mg/L (≈ 55.9 µM). Besides, in data set [3], the selectivity ratio was above 4000. In addition, the MIC90 (usually an inhibitory concentration at the 90% level, which refers to growth in some studies and to a panel of isolates in others) came out at 1 mg/L (≈ 1.75 µM) in data set [4]; 8 mg/L (≈ 14 µM) in data set [5]; 4 mg/L (≈ 6.99 µM) against Staphylococcus aureus [6]; 8 mg/L (≈ 14 µM) against Staphylococcus aureus [7]; 8 mg/L (≈ 14 µM) with Enterococcus faecalis; 64 mg/L (≈ 112 µM) against Enterococcus faecium. Moreover, the MIC90 with Escherichia coli was 0.5 mg/L (≈ 0.873 µM); against Klebsiella pneumoniae, 2 mg/L (≈ 3.49 µM); with Pseudomonas aeruginosa it was 4 mg/L (≈ 6.99 µM); in data set [8], 4 mg/L (≈ 6.99 µM); against Enterobacter cloacae, 1 mg/L (≈ 1.75 µM); in the data set with Klebsiella aerogenes it was 2 mg/L (≈ 3.49 µM). The MIC90 came to 4 mg/L (≈ 6.99 µM) in the data set with Proteus mirabilis and 2 mg/L (≈ 3.49 µM) with Citrobacter freundii.
On to `CCOC(=O)c1c(-c2ccc(OC)cc2)oc2ccc(OCCCN3C(=O)/C(=N\OC)c4ccccc43)cc12`, for which the minimum inhibitory concentration (MIC) in [1] was below 0.016 mg/L. In data set [2], the CC50 at 72 h turned out to be 128 mg/L (≈ 242 µM). Besides, in data set [3], the selectivity ratio was above 1000. Further, the MIC90 in data set [4] was 0.5 mg/L (≈ 0.946 µM); in [5] it was 1 mg/L (≈ 1.89 µM); with Staphylococcus aureus [6], 4 mg/L (≈ 7.57 µM); in the data set on Staphylococcus aureus [7], 4 mg/L (≈ 7.57 µM); against Enterococcus faecalis, 4 mg/L (≈ 7.57 µM); with Enterococcus faecium it was 32 mg/L (≈ 60.5 µM). Moreover, the MIC90 against Escherichia coli is 0.25 mg/L (≈ 0.473 µM); against Klebsiella pneumoniae, 1 mg/L (≈ 1.89 µM); against Pseudomonas aeruginosa, 2 mg/L (≈ 3.78 µM); in [8], 1 mg/L (≈ 1.89 µM); with Enterobacter cloacae, 0.5 mg/L (≈ 0.946 µM); in the data set with Klebsiella aerogenes, 1 mg/L (≈ 1.89 µM). The MIC90 came out at 0.5 mg/L (≈ 0.946 µM) in the data set with Proteus mirabilis and 1 mg/L (≈ 1.89 µM) against Citrobacter freundii.
`CCOC(=O)c1c(-c2ccc(OC)cc2)oc2ccc(OCCCCCN3C(=O)C(=O)c4cc(F)ccc43)cc12` came in with an MIC in data set [1] of 0.064 mg/L (≈ 0.117 µM). Besides, the CC50 at 72 h in data set [2] turned out to be 512 mg/L (≈ 938 µM). In data set [3], the selectivity ratio stood at 8000. The MIC90 worked out at 1 mg/L (≈ 1.83 µM) in data set [4]; 8 mg/L (≈ 14.7 µM) in [5]; 2 mg/L (≈ 3.67 µM) in the data set with Staphylococcus aureus [6]; 2 mg/L (≈ 3.67 µM) against Staphylococcus aureus [7]; 4 mg/L (≈ 7.33 µM) with Enterococcus faecalis; 64 mg/L (≈ 117 µM) in the data set with Enterococcus faecium. Also, the MIC90 in the data set on Escherichia coli is 0.25 mg/L (≈ 0.458 µM); in the data set on Klebsiella pneumoniae, 2 mg/L (≈ 3.67 µM); against Pseudomonas aeruginosa it was 8 mg/L (≈ 14.7 µM); in data set [8] it was 8 mg/L (≈ 14.7 µM); against Enterobacter cloacae it was 1 mg/L (≈ 1.83 µM); in the data set with Klebsiella aerogenes, 1 mg/L (≈ 1.83 µM). The MIC90 was 0.25 mg/L (≈ 0.458 µM) in the data set with Proteus mirabilis and 1 mg/L (≈ 1.83 µM) in the data set with Citrobacter freundii.
The molecule `CCO/N=C1\C(=O)N(CCCCCOc2ccc3oc(-c4ccc(OC)cc4)c(C(=O)OCC)c3c2)c2ccc(OC)cc21` had an MIC in [1] of 0.156 mg/L (≈ 0.26 µM). In data set [2], the CC50 at 72 h came out at 16 mg/L (≈ 26.6 µM). In data set [3], the selectivity ratio was 102. In addition, the MIC90 in data set [4] was found to be 1 mg/L (≈ 1.66 µM); in data set [5], 4 mg/L (≈ 6.66 µM); with Staphylococcus aureus [6], 1 mg/L (≈ 1.66 µM); against Staphylococcus aureus [7], 1 mg/L (≈ 1.66 µM); with Enterococcus faecalis it was 1 mg/L (≈ 1.66 µM); against Enterococcus faecium, 16 mg/L (≈ 26.6 µM). Besides, the MIC90 was 0.125 mg/L (≈ 0.208 µM) against Escherichia coli; 2 mg/L (≈ 3.33 µM) against Klebsiella pneumoniae; 2 mg/L (≈ 3.33 µM) in the data set with Pseudomonas aeruginosa; 2 mg/L (≈ 3.33 µM) in data set [8]; 0.06 mg/L (≈ 0.0999 µM) against Enterobacter cloacae; 0.125 mg/L (≈ 0.208 µM) with Klebsiella aerogenes. Further, the MIC90 came out at 0.06 mg/L (≈ 0.0999 µM) with Proteus mirabilis and 0.125 mg/L (≈ 0.208 µM) against Citrobacter freundii.
Regarding `CCOC(=O)c1c(-c2ccc(OC)cc2)oc2ccc(OCCCCCN3C(=O)/C(=N\OC)c4cc(F)ccc43)cc12`, the MIC in data set [1] is below 0.016 mg/L. Moreover, in [2], the CC50 at 72 h was found to be 32 mg/L (≈ 55.7 µM). Further, the selectivity ratio in data set [3] is above 2000. The MIC90 in [4] was 0.5 mg/L (≈ 0.87 µM); in [5] it was 4 mg/L (≈ 6.96 µM); in the data set with Staphylococcus aureus [6], 4 mg/L (≈ 6.96 µM); against Staphylococcus aureus [7], 2 mg/L (≈ 3.48 µM); with Enterococcus faecalis it was 1 mg/L (≈ 1.74 µM); in the data set with Enterococcus faecium, 16 mg/L (≈ 27.8 µM). For the same molecule, the MIC90 with Escherichia coli is 0.125 mg/L (≈ 0.218 µM); with Klebsiella pneumoniae, 0.5 mg/L (≈ 0.87 µM); with Pseudomonas aeruginosa, 1 mg/L (≈ 1.74 µM); in data set [8] it was 1 mg/L (≈ 1.74 µM); with Enterobacter cloacae, 2 mg/L (≈ 3.48 µM); in the data set with Klebsiella aerogenes, 0.125 mg/L (≈ 0.218 µM). For the same molecule, the MIC90 against Proteus mirabilis was 0.06 mg/L (≈ 0.104 µM); in the data set with Citrobacter freundii it was 0.125 mg/L (≈ 0.218 µM).
Molecule `CCOC(=O)c1c(-c2ccc(OC)cc2)oc2ccc(OCCCCCCN3C(=O)/C(=N\NC(N)=S)c4cc(F)ccc43)cc12` registered an MIC in data set [1] below 0.016 mg/L. Also, the CC50 at 72 h in data set [2] was found to be 8 mg/L (≈ 12.6 µM). For the same molecule, in data set [3], the selectivity ratio is above 500. Also, the MIC90 in [4] came out at 0.5 mg/L (≈ 0.79 µM); in [5] it was 2 mg/L (≈ 3.16 µM); with Staphylococcus aureus [6], 1 mg/L (≈ 1.58 µM); against Staphylococcus aureus [7], 1 mg/L (≈ 1.58 µM); with Enterococcus faecalis, 1 mg/L (≈ 1.58 µM); with Enterococcus faecium, 32 mg/L (≈ 50.6 µM). Also, the MIC90 is 0.125 mg/L (≈ 0.198 µM) in the data set with Escherichia coli; 1 mg/L (≈ 1.58 µM) with Klebsiella pneumoniae; 4 mg/L (≈ 6.32 µM) with Pseudomonas aeruginosa; 16 mg/L (≈ 25.3 µM) in data set [8]; 0.5 mg/L (≈ 0.79 µM) with Enterobacter cloacae; 2 mg/L (≈ 3.16 µM) against Klebsiella aerogenes. Further, the MIC90 against Proteus mirabilis was 1 mg/L (≈ 1.58 µM); against Citrobacter freundii, 0.25 mg/L (≈ 0.395 µM).
